Measurements: US20110039783A1, “PEPTIDE HAVING HYPOTENSIVE ACTIVITY” (DAIICHI SANKYO COMPANY LIMITED, priority 2007, published 2011)
Where no end group is shown, it is not given here.

System: blood pressure of anesthetized Sprague-Dawley IGS male rats
Experiment: Hypotensive activity in anesthetized rats, invasive blood pressure measurement after intravenous administration
Assay type: in vivo, rat
Details: for Hypotensive activity (dose/rat) 10 nmol / Hypotensive activity (dose/rat) 30 nmol / Hypotensive activity (dose/rat) 100 nmol: anesthetized rats, intravenous; for Hypotensive activity (dose/rat) 10 nmol: 10 nmol/rat; for Hypotensive activity (dose/rat) 30 nmol: 30 nmol/rat; for Hypotensive activity (dose/rat) 100 nmol: 100 nmol/rat; for dose dependence of hypotensive activity: anesthetized rats, 10, 30, 100 nmol/rat
Experimental: 50 mg/kg pentobarbital sodium was intraperitoneally administered to 8- to 10-week-old Sprague-Dawley IGS male rats (Charles River Laboratories Japan, Inc.) for anesthesia. Thereafter, a tracheal cannula (PE 250), a femoral vein cannula (PE50), and a femoral artery cannula (PESO) were inserted into each rat. The femoral artery cannula was connected with a pressure transducer (PE23XL; manufactured by Nihon Kohden Corporation), and an apparatus formed by incorporating a blood pressure measurement unit (AP-641G; manufactured by Nihon Kohden Corporation) and an instantaneous heart rate measurement unit (AT-601G; manufactured by Nihon Kohden Corporation) into a multi-purpose preamplifier (RP-6004; manufactured by Nihon Kohden Corporation) was used to record the blood pressure and heart rate of each rat. The blood pressure was calibrated using a mercury manometer included in a stand-type electromanometer (MP-25S; manufactured by Nihon Kohden Corporation). The recording paper was adjusted, such that 10 mm or 20 mm on the recording paper corresponded to 100 mmHg.
Each peptide was dissolved in a concentration of 1 mM or 10 mM in a 0.1% acetic acid solution to prepare a peptide solution. Thereafter, depending on dose, it was diluted with a normal saline containing 0.1% bovine serum albumin (Fr.V). In the case of the dose of 10 nmol/rat, a 1 mM peptide solution was 10 times diluted, and 100 μl of the diluted solution was administered. In the case of the dose of 30 nmol/rat, a 1 mM peptide solution was 10 times diluted, and 300 μL, of the diluted solution was administered. In the case of the dose of 100 nmol/rat, a 10 mM peptide solution was 10 times diluted, and 100 μL of the diluted solution was administered. Each peptide was intravenously administered via the femoral vein cannula, and the systolic blood pressure, diastolic blood pressure, and heart rate were then measured.
Various HC021 derivative peptides were synthesized in accordance with Example 1, and such peptide was then administered to each rat at a dose of 10 nmol/rat, 30 nmol/rat, or 100 mol/rat by the method described in Example 2. Thereafter, the hypotensive activity of each derivative peptide was measured. […] The strength of such activity was determined using a median of activity in repeated experiments. In addition, in order to make a comparison among the activities of various derivative peptides, the strength of hypotensive activity was defined as follows.
Strength of Hypotensive Activity
Extremely strong activity (+++): A decrease in systolic blood pressure is 30 mmHg or more, and the time required for recovery is 5 minutes or more.
Strong activity (++): A decrease in systolic blood pressure is 20 mmHg or more and less than 30 mmHg, or the time required for recovery is less than 5 minutes.
Activity observed (+): A decrease in systolic blood pressure is less than 20 mmHg.
Activity not observed (−)
Various HC021 peptide sequence-substituted products were synthesized in accordance with Example 1, and their hypotensive activity was then measured according to the method of Example 3.

| Substance | Hypotensive activity (dose/rat) 10 nmol (Table 3) | Hypotensive activity (dose/rat) 30 nmol (Table 3) | Hypotensive activity (dose/rat) 10 nmol (Table 2) | Hypotensive activity (dose/rat) 30 nmol (Table 2) | further results |
| --- | --- | --- | --- | --- | --- |
| LFFRRLQAHFK-amide (LFFRRLQAHFK-NH2) [Compound 47] | − | − |  |  | Hypotensive activity (dose/rat) 100 nmol (Table 3): +++ (Extremely strong activity (+++): A decrease in systolic blood pressure is 30 mmHg or more, and the time required for recovery is 5 minutes or more.) |
| NRDLFFRRLQAYFKG-amide (NRDLFFRRLQAYFKG-NH2) [Compound 12] |  |  | − | ++ (Strong activity (++): A decrease in systolic blood pressure is 20 mmHg or more and less than 30 mmHg, or the time required for recovery is less than 5 minutes.) | Hypotensive activity (dose/rat) 100 nmol (Table 2): +++ (Extremely strong activity (+++): A decrease in systolic blood pressure is 30 mmHg or more, and the time required for recovery is 5 minutes or more.); dose dependence of hypotensive activity: enhanced their hypotensive activity in a dose-dependent manner |
| ATVRNEDKWKPLNNPRNRDLFFRRLQAYF [Compound 9] |  |  |  | − | Hypotensive activity (dose/rat) 100 nmol (Table 2): +++ (Extremely strong activity (+++): A decrease in systolic blood pressure is 30 mmHg or more, and the time required for recovery is 5 minutes or more.) |
| LFFRRLQALFK-amide (LFFRRLQALFK-NH2) [Compound 44] | − | ++ (Strong activity (++): A decrease in systolic blood pressure is 20 mmHg or more and less than 30 mmHg, or the time required for recovery is less than 5 minutes.) |  |  |  |
| ATLGSEDTWKPLSNPRNRELFFRSLQAYFK-amide [Compound 37] | − | − |  |  | Hypotensive activity (dose/rat) 100 nmol (Table 3): ++ (Strong activity (++): A decrease in systolic blood pressure is 20 mmHg or more and less than 30 mmHg, or the time required for recovery is less than 5 minutes.) |
| pyr-EDKWKPLNNPRNRDLFFRRLQAYFK-amide (not fully specified; N-terminal pyroglutamate, C-terminal amide) [Compound 33] |  |  | ++ (Strong activity (++): A decrease in systolic blood pressure is 20 mmHg or more and less than 30 mmHg, or the time required for recovery is less than 5 minutes.) |  |  |
| GATVRNEDKWKPLNNPRNRDLFFRRLQAYFK-amide [Compound 7] |  |  | − | ++ (Strong activity (++): A decrease in systolic blood pressure is 20 mmHg or more and less than 30 mmHg, or the time required for recovery is less than 5 minutes.) |  |
| LFFRSLQAYFK-amide (LFFRSLQAYFK-NH2) [Compound 43] | − | ++ (Strong activity (++): A decrease in systolic blood pressure is 20 mmHg or more and less than 30 mmHg, or the time required for recovery is less than 5 minutes.) |  |  |  |
| FVPIFTYGELQRMQNRDLFFRRLQAYFK-amide (FVPIFTYGELQRMQNRDLFFRRLQAYFK-NH2) [Compound 39] | − | − |  |  | Hypotensive activity (dose/rat) 100 nmol (Table 3): +++ (Extremely strong activity (+++): A decrease in systolic blood pressure is 30 mmHg or more, and the time required for recovery is 5 minutes or more.) |
| LFFRRLQAYFK [Compound 18] |  |  |  | − | Hypotensive activity (dose/rat) 100 nmol (Table 2): ++ (Strong activity (++): A decrease in systolic blood pressure is 20 mmHg or more and less than 30 mmHg, or the time required for recovery is less than 5 minutes.) |
| NGATVRNEDKWKPLNNPRNRDLFFRRLQAYFK-amide [Compound 6] |  |  | − | + (Activity observed (+): A decrease in systolic blood pressure is less than 20 mmHg.) |  |
| LFFRRLQAWFK-amide (LFFRRLQAWFK-NH2) [Compound 46] | − | − |  |  | Hypotensive activity (dose/rat) 100 nmol (Table 3): + (Activity observed (+): A decrease in systolic blood pressure is less than 20 mmHg.) |
| FFRRLQAYFK-amide (FFRRLQAYFK-NH2) [Compound 20] |  |  |  | − | Hypotensive activity (dose/rat) 100 nmol (Table 2): − |
| DLFFRRLQAYFK-amide (DLFFRRLQAYFK-NH2) [Compound 17] |  |  | − | ++ (Strong activity (++): A decrease in systolic blood pressure is 20 mmHg or more and less than 30 mmHg, or the time required for recovery is less than 5 minutes.) | Hypotensive activity (dose/rat) 100 nmol (Table 2): +++ (Extremely strong activity (+++): A decrease in systolic blood pressure is 30 mmHg or more, and the time required for recovery is 5 minutes or more.); dose dependence of hypotensive activity: enhanced their hypotensive activity in a dose-dependent manner |
| ATLGSEDTWKPLSNPRNRDLFPRRLQAYFK-amide [Compound 35] | − | ++ (Strong activity (++): A decrease in systolic blood pressure is 20 mmHg or more and less than 30 mmHg, or the time required for recovery is less than 5 minutes.) |  |  |  |
| LFFRRLQAYFKGRGLDLGTFPNPF [Compound 27] |  |  | +++ (Extremely strong activity (+++): A decrease in systolic blood pressure is 30 mmHg or more, and the time required for recovery is 5 minutes or more.) |  |  |
| NRDLFFRRLQAYFKGR-amide (NRDLFFRRLQAYFKGR-NH2) [Compound 14] |  |  | + (Activity observed (+): A decrease in systolic blood pressure is less than 20 mmHg.) | ++ (Strong activity (++): A decrease in systolic blood pressure is 20 mmHg or more and less than 30 mmHg, or the time required for recovery is less than 5 minutes.) | dose dependence of hypotensive activity: enhanced their hypotensive activity in a dose-dependent manner |
| LFFRRLQAYFKGRGLDLGTFPNPF-amide (LFFRRLQAYFKGRGLDLGTFPNPF-NH2) [Compound 28] |  |  | +++ (Extremely strong activity (+++): A decrease in systolic blood pressure is 30 mmHg or more, and the time required for recovery is 5 minutes or more.) |  |  |
| acetyl-NRDLFFRRLQAYFK-amide (Ac-NRDLFFRRLQAYFK-NH2) [Compound 32] |  |  |  | ++ (Strong activity (++): A decrease in systolic blood pressure is 20 mmHg or more and less than 30 mmHg, or the time required for recovery is less than 5 minutes.) |  |
| NRDLFFRRLQAYAK-amide (NRDLFFRRLQAYAK-NH2) [Compound 42] | − | − |  |  | Hypotensive activity (dose/rat) 100 nmol (Table 3): ++ (Strong activity (++): A decrease in systolic blood pressure is 20 mmHg or more and less than 30 mmHg, or the time required for recovery is less than 5 minutes.) |
| LFFRRLQAY-amide (LFFRRLQAY-NH2) [Compound 25] |  |  |  | − | Hypotensive activity (dose/rat) 100 nmol (Table 2): + (Activity observed (+): A decrease in systolic blood pressure is less than 20 mmHg.) |
